Key:
Assay in all cases: relative viability (nuclei count vs DMSO), 5 days (fraction); higher = more cells survive
Shikonin + Phenformin = compound: CC(C)=CC[C@@H](O)C1=CC(=O)c2c(O)ccc(O)c2C1=O [Shikonin] + N=C(N)NC(=N)NCCc1ccccc1 [Phenformin] (partner 250 µM)
Outline: (§1)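 Each reported value is a median over duplicate plates. It expresses relative viability: treated-well nuclei count divided by vehicle-well nuclei count. Lung cancer cell lines in 1536-well plates were dosed by pin tool a day after seeding, alone with one drug or with a fixed anchor-drug dose plus five library-drug doses (not always all listed) in √10 steps, and nuclei were counted after 5 days.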

[1] = compound: CC(C)N(CCCNC(=O)Nc1ccc(C(C)(C)C)cc1)C[C@H]1O[C@@H](n2ccc3c(N)ncnc32)[C@H](O)[C@@H]1O + CC1(C)CCC(c2ccc(Cl)cc2)=C(CN2CCN(c3ccc(C(=O)NS(=O)(=O)c4ccc(N[C@H](CCN5CCOCC5)CSc5ccccc5)c(S(=O)(=O)C(F)(F)F)c4)cc3)CC2)C1 [Navitoclax] (partner 0.5 µM)
Outline: as §1

Shikonin + Trametinib = compound: CC(C)=CC[C@@H](O)C1=CC(=O)c2c(O)ccc(O)c2C1=O [Shikonin] + CC(=O)Nc1cccc(-n2c(=O)n(C3CC3)c(=O)c3c(Nc4ccc(I)cc4F)n(C)c(=O)c(C)c32)c1 [Trametinib] (partner 0.02 µM)
Outline: as §1

Shikonin + Decitabine = compound: CC(C)=CC[C@@H](O)C1=CC(=O)c2c(O)ccc(O)c2C1=O [Shikonin] + Nc1ncn([C@H]2C[C@H](O)[C@@H](CO)O2)c(=O)n1 [Decitabine] (partner 2 µM)
Outline: as §1

For NCI-H2405, the relative viability (Shikonin + Phenformin; first compound 0.01 µM) was 0.391, the relative viability (Shikonin + Phenformin; first compound 0.1 µM) was 0.398 and the relative viability (Shikonin + Phenformin; first compound 0.3162 µM) was 0.427. The relative viability (Shikonin + Phenformin; first compound 1 µM) was 0.396, the relative viability ([1]; first compound 0.08 µM) was 0.957 and the relative viability ([1]; first compound 0.8 µM) was 0.991. The relative viability ([1]; first compound 2.53 µM) was 1, the relative viability ([1]; first compound 8 µM) was 1.05 and the relative viability (Shikonin + Trametinib; first compound 0.01 µM) was 0.622. For the same cell line, the relative viability (Shikonin + Trametinib; first compound 0.1 µM) was 0.725, the relative viability (Shikonin + Trametinib; first compound 0.3162 µM) was 0.653 and the relative viability (Shikonin + Trametinib; first compound 1 µM) was 0.573. It also gave a relative viability (Shikonin + Decitabine; first compound 0.01 µM) of 0.827, a relative viability (Shikonin + Decitabine; first compound 0.1 µM) of 0.889 and a relative viability (Shikonin + Decitabine; first compound 0.3162 µM) of 0.762. For the same cell line, the relative viability (Shikonin + Decitabine; first compound 1 µM) was 0.702.
NCI-H1648 gave a relative viability (Shikonin + Trametinib; first compound 0.01 µM) of 0.422, a relative viability (Shikonin + Trametinib; first compound 0.3162 µM) of 0.464 and a relative viability (Shikonin + Trametinib; first compound 1 µM) of 0.503. For the same cell line, the relative viability (Shikonin + Decitabine; first compound 0.01 µM) was 0.481, the relative viability (Shikonin + Decitabine; first compound 0.3162 µM) was 0.526 and the relative viability (Shikonin + Decitabine; first compound 1 µM) was 0.532.
Work on NCI-H650 yielded a relative viability (Shikonin + Phenformin; first compound 0.01 µM) of 0.462, a relative viability (Shikonin + Phenformin; first compound 0.1 µM) of 0.462 and a relative viability (Shikonin + Phenformin; first compound 0.3162 µM) of 0.447. The relative viability (Shikonin + Phenformin; first compound 1 µM) was 0.426, the relative viability (Shikonin + Trametinib; first compound 0.01 µM) was 0.988 and the relative viability (Shikonin + Trametinib; first compound 0.1 µM) was 1.19. The relative viability (Shikonin + Trametinib; first compound 0.3162 µM) was 0.996, the relative viability (Shikonin + Trametinib; first compound 1 µM) was 0.982 and the relative viability (Shikonin + Decitabine; first compound 0.01 µM) was 0.295. For the same cell line, the relative viability (Shikonin + Decitabine; first compound 0.1 µM) was 0.314, the relative viability (Shikonin + Decitabine; first compound 0.3162 µM) was 0.334 and the relative viability (Shikonin + Decitabine; first compound 1 µM) was 0.27.
NCI-H661 gave a relative viability (Shikonin + Phenformin; first compound 0.01 µM) of 0.251, a relative viability (Shikonin + Phenformin; first compound 0.1 µM) of 0.292 and a relative viability (Shikonin + Phenformin; first compound 0.3162 µM) of 0.275. The relative viability (Shikonin + Phenformin; first compound 1 µM) was 0.291, the relative viability (Shikonin + Trametinib; first compound 0.01 µM) was 0.559 and the relative viability (Shikonin + Trametinib; first compound 0.1 µM) was 0.536. For the same cell line, the relative viability (Shikonin + Trametinib; first compound 0.3162 µM) was 0.505, the relative viability (Shikonin + Trametinib; first compound 1 µM) was 0.576 and the relative viability (Shikonin + Decitabine; first compound 0.01 µM) was 0.51. The relative viability (Shikonin + Decitabine; first compound 0.1 µM) was 0.552, the relative viability (Shikonin + Decitabine; first compound 0.3162 µM) was 0.572 and the relative viability (Shikonin + Decitabine; first compound 1 µM) was 0.529.
For A549, the relative viability (Shikonin + Phenformin; first compound 0.01 µM) was 0.14, the relative viability (Shikonin + Phenformin; first compound 0.1 µM) was 0.355 and the relative viability (Shikonin + Phenformin; first compound 0.3162 µM) was 0.12. For the same cell line, the relative viability (Shikonin + Phenformin; first compound 1 µM) was 0.122, the relative viability ([1]; first compound 0.08 µM) was 1.17 and the relative viability ([1]; first compound 0.253 µM) was 1.22. It also gave a relative viability ([1]; first compound 0.8 µM) of 1.25, a relative viability ([1]; first compound 2.53 µM) of 1.18 and a relative viability ([1]; first compound 8 µM) of 1.14. The relative viability (Shikonin + Decitabine; first compound 0.01 µM) was 0.223, the relative viability (Shikonin + Decitabine; first compound 0.1 µM) was 0.281 and the relative viability (Shikonin + Decitabine; first compound 0.3162 µM) was 0.239. For the same cell line, the relative viability (Shikonin + Decitabine; first compound 1 µM) was 0.193.
Cell Line NCI-H358 has a relative viability (Shikonin + Phenformin; first compound 0.01 µM) of 0.289, a relative viability (Shikonin + Phenformin; first compound 0.1 µM) of 0.387 and a relative viability (Shikonin + Phenformin; first compound 0.3162 µM) of 0.329. For the same cell line, the relative viability (Shikonin + Phenformin; first compound 1 µM) was 0.37, the relative viability (Shikonin + Trametinib; first compound 0.01 µM) was 0.124 and the relative viability (Shikonin + Trametinib; first compound 0.1 µM) was 0.124. The relative viability (Shikonin + Trametinib; first compound 0.3162 µM) was 0.121, the relative viability (Shikonin + Trametinib; first compound 1 µM) was 0.126 and the relative viability (Shikonin + Decitabine; first compound 0.01 µM) was 0.178. The relative viability (Shikonin + Decitabine; first compound 0.1 µM) was 0.23, the relative viability (Shikonin + Decitabine; first compound 0.3162 µM) was 0.218 and the relative viability (Shikonin + Decitabine; first compound 1 µM) was 0.19.
For NCI-H1563, the relative viability (Shikonin + Phenformin; first compound 0.01 µM) was 0.662, the relative viability (Shikonin + Phenformin; first compound 0.1 µM) was 0.723 and the relative viability (Shikonin + Phenformin; first compound 0.3162 µM) was 0.643. It also gave a relative viability (Shikonin + Phenformin; first compound 1 µM) of 0.673.
For NCI-H2228, the relative viability (Shikonin + Phenformin; first compound 0.01 µM) was 0.31, the relative viability (Shikonin + Phenformin; first compound 0.1 µM) was 0.287 and the relative viability (Shikonin + Phenformin; first compound 0.3162 µM) was 0.283. It also gave a relative viability (Shikonin + Phenformin; first compound 1 µM) of 0.289, a relative viability ([1]; first compound 0.08 µM) of 1.1 and a relative viability ([1]; first compound 0.8 µM) of 0.916. The relative viability ([1]; first compound 2.53 µM) was 1.32, the relative viability ([1]; first compound 8 µM) was 0.711 and the relative viability (Shikonin + Trametinib; first compound 0.01 µM) was 0.342. The relative viability (Shikonin + Trametinib; first compound 0.1 µM) was 0.441, the relative viability (Shikonin + Trametinib; first compound 0.3162 µM) was 0.536 and the relative viability (Shikonin + Trametinib; first compound 1 µM) was 0.494.
In the case of NCI-H522, the relative viability (Shikonin + Phenformin; first compound 0.01 µM) is reported as 0.663, the relative viability (Shikonin + Phenformin; first compound 0.1 µM) is reported as 0.713 and the relative viability (Shikonin + Phenformin; first compound 0.3162 µM) is reported as 0.601. The relative viability (Shikonin + Phenformin; first compound 1 µM) was 0.623, the relative viability (Shikonin + Trametinib; first compound 0.01 µM) was 0.747 and the relative viability (Shikonin + Trametinib; first compound 0.1 µM) was 0.747. It also gave a relative viability (Shikonin + Trametinib; first compound 0.3162 µM) of 0.871, a relative viability (Shikonin + Trametinib; first compound 1 µM) of 0.646 and a relative viability (Shikonin + Decitabine; first compound 0.01 µM) of 0.62. The relative viability (Shikonin + Decitabine; first compound 0.1 µM) was 0.763, the relative viability (Shikonin + Decitabine; first compound 0.3162 µM) was 0.644 and the relative viability (Shikonin + Decitabine; first compound 1 µM) was 0.553.
IA-LM gave a relative viability ([1]; first compound 0.08 µM) of 0.693, a relative viability ([1]; first compound 0.253 µM) of 0.788 and a relative viability ([1]; first compound 0.8 µM) of 0.951. The relative viability ([1]; first compound 2.53 µM) was 0.72 and the relative viability ([1]; first compound 8 µM) was 0.586.
For NCI-H1703, the relative viability ([1]; first compound 0.08 µM) was 1.13, the relative viability ([1]; first compound 0.253 µM) was 1.14 and the relative viability ([1]; first compound 0.8 µM) was 1.61. It also gave a relative viability ([1]; first compound 2.53 µM) of 1.27 and a relative viability ([1]; first compound 8 µM) of 0.89.
LCLC-103H was tested, and the relative viability (Shikonin + Phenformin; first compound 0.01 µM) was 0.372, the relative viability (Shikonin + Phenformin; first compound 0.1 µM) was 0.335 and the relative viability (Shikonin + Phenformin; first compound 0.3162 µM) was 0.341. The relative viability (Shikonin + Phenformin; first compound 1 µM) was 0.34, the relative viability (Shikonin + Trametinib; first compound 0.01 µM) was 0.662 and the relative viability (Shikonin + Trametinib; first compound 0.1 µM) was 0.683. The relative viability (Shikonin + Trametinib; first compound 0.3162 µM) was 0.663, the relative viability (Shikonin + Trametinib; first compound 1 µM) was 0.698 and the relative viability (Shikonin + Decitabine; first compound 0.01 µM) was 0.711. For the same cell line, the relative viability (Shikonin + Decitabine; first compound 0.1 µM) was 0.727, the relative viability (Shikonin + Decitabine; first compound 0.3162 µM) was 0.74 and the relative viability (Shikonin + Decitabine; first compound 1 µM) was 0.75.
With SW 900 the relative viability (Shikonin + Phenformin; first compound 0.01 µM) was 0.667, the relative viability (Shikonin + Phenformin; first compound 0.1 µM) was 0.589 and the relative viability (Shikonin + Phenformin; first compound 0.3162 µM) was 0.666. The relative viability (Shikonin + Phenformin; first compound 1 µM) was 0.661, the relative viability (Shikonin + Trametinib; first compound 0.01 µM) was 0.809 and the relative viability (Shikonin + Trametinib; first compound 0.1 µM) was 0.934. It also gave a relative viability (Shikonin + Trametinib; first compound 0.3162 µM) of 0.969, a relative viability (Shikonin + Trametinib; first compound 1 µM) of 0.741 and a relative viability (Shikonin + Decitabine; first compound 0.01 µM) of 0.373. For the same cell line, the relative viability (Shikonin + Decitabine; first compound 0.1 µM) was 0.536, the relative viability (Shikonin + Decitabine; first compound 0.3162 µM) was 0.395 and the relative viability (Shikonin + Decitabine; first compound 1 µM) was 0.396.
